What was measured:
Assay type in all cases: in vivo, rabbit
[1] = tested on: REC1_28 (digital address CGGT 101) mRNA, calgizzarin; assay: TOGA analysis, REC1_28; settings: aorta of hypercholesterolemic rabbits treated with (R)-lercanidipine
Procedure: (§1) To perform the studies, New Zealand male rabbits weighing 2.0-2.5 kg (Charles River, Calco, Italy) were used. The rabbits were divided into three groups and maintained in identical experimental conditions: (1) control group (n=15); rabbits fed a cholesterol-rich diet; (2) lercanidipine-treated group (n=15); rabbits fed a cholesterol-rich diet and also treated with lercanidipine (3 mg/kg/week); and (3) (R)-lercanidipine-treated group (n=5); rabbits fed a cholesterol-rich diet and also treated with the (R)-enantiomer of lercanidipine (3 mg/kg/week). After a 2 week period of subcutaneous, once a week, pretreatment with 3 mg/kg/week of lercanidipine or (R)-lercanidipine, the rabbits received a daily cholesterol supplement for up to 8 weeks or 2 weeks, respectively. In the following examples, use of the term “lercanidipine” refers to the racemic mixture of lercanidipine hydrochloride, whereas “(R)-lercanidipine” refers to the (R)-enantiomer of lercanidipine hydrochloride.
(§2) The mRNA from the above-described groups was isolated from aorta at different time points, resulting in the following mRNA samples: (1) Day 0 Control=no administered cholesterol, no lercanidipine; (2) Day 0+lercanidipine=no administered cholesterol, treatment with lercanipidine (2 weeks; 3 mg/kg/week); (3) Day 14 Control=cholesterol diet for two weeks, no lercanidipine; (4) Day 14+lercanidipine=cholesterol diet for two weeks, treatment with lercanidipine (four weeks; 3 mg/kg/week); (5) Week 8 Control=cholesterol diet for 8 weeks, no lercanidipine; and (6) Week 8+lercanidipine=cholesterol diet for 8 weeks, treatment with lercanidipine (10 weeks; 3 mg/kg/week). In addition, Day 14+(R)-lercanidipine mRNA samples were prepared from rabbits given a cholesterol diet for two weeks and treated with 3 mg/kg/week (R)-lercanidipine for four weeks.
(§3) Aorta mRNAs were prepared in the following manner. First, the aortas from each experimental group were retrieved and shredded using a polytron homogenizer. The samples were further homogenized using a teflon pestle, after which the cellular debris, nuclei, and blood cells were pelleted by centrifugation. The supernatants were extracted twice with phenol-chloroform-isoamyl alcohol and once with chloroform-isoamyl alcohol. RNA was then precipitated from the aqueous phase with ethanol. The poly A+ mRNA was prepared using standard methods of polyA selection known in the art (Schriber et al., J. Mol. Biol., 142:93-116 (1980)).
(§4) The isolated mRNA was analyzed using a method of simultaneous sequence-specific identification of mRNAs known as TOGA, described in U.S. Pat. No. 5,459,037 and U.S. Pat. No. 5,807,680, hereby incorporated herein by reference. In a preferred embodiment, the TOGA method further comprised an additional PCR step performed using a mixture of four 5′ PCR primers and cDNA templates prepared from a population of antisense cRNAs. A final PCR step that used a mixture of 256 5′ PCR primers produced PCR products that were cDNA fragments that corresponded to the 3′-region of the starting mRNA population. The produced PCR products were then identified by: (a) the initial 5′ sequence comprising the sequence remainder of the recognition site of the restriction endonuclease used to cut and isolate the 3′ region plus the sequence of the preferably four parsing bases immediately 3′ to the remainder of the recognition site, preferably the sequence of the entire fragment; and (b) the length of the fragment. These two parameters, sequence and fragment length, were used to compare the obtained PCR products to a database of known polynucleotide sequences. Since the length of the obtained PCR products includes known vector sequences at the 5′ and 3′ ends of the insert, the sequence of the insert provided in the sequence listing is shorter than the fragment length that forms part of the digital address.
(§5) The method yields Digital Sequence Tags (DSTs), that is, polynucleotides that are expressed sequence tags of the 3′ end of mRNAs. […]

[2] = tested on: REC1_37 (digital address TTCA 264) mRNA, ribosomal protein L15; assay: TOGA analysis, REC1_37; settings: aorta at day 14 of cholesterol, 3 mg/kg/week for 4 weeks
Procedure: as §1, §2, §3, §4, §5

[3] = tested on: REC1_7 (MspI CACA 282) mRNA; assay: TOGA analysis, REC1_7; settings: aorta at day 14 of cholesterol administration, 3 mg/kg/week for 4 weeks
Procedure: as §1, §2, §3, §4, §5

[4] = tested on: REC1_22 (digital address TGGG 164) mRNA; assay: TOGA analysis, REC1_22; settings: TOGA; hypercholesterolemic plus lercanidipine R (−), eight weeks; H2 (normocholesterolemic)=1.0
Procedure: as §1, §2, §3, §4, §5

[5] = tested on: REC1_31 (digital address TGCA 210) mRNA, mitochondrial genome; assay: TOGA analysis, REC1_31; settings: aorta at day 14 of cholesterol administration, 3 mg/kg/week for 4 weeks
Procedure: as §1, §2, §3, §4, §5

[6] = tested on: REC1_1 (MspI AAGC 288) mRNA, TYRO protein tyrosine kinase binding p; assay: TOGA analysis, REC1_1; settings: aorta at day 14 of cholesterol treatment, 3 mg/kg/week for 4 weeks
Procedure: as §1, §2, §3, §4, §5

[7] = tested on: REC1_33 (digital address CCGA 96) mRNA, as1_casein gene; assay: TOGA analysis, REC1_33; settings: aorta at day 14 of cholesterol administration, 3 mg/kg/week for 4 weeks
Procedure: as §1, §2, §3, §4, §5

[8] = tested on: REC1_24 (digital address CCGG 232) mRNA; assay: TOGA analysis, REC1_24; settings: TOGA; hypercholesterolemic plus lercanidipine R (−), eight weeks; H2 (normocholesterolemic)=1.0
Procedure: as §1, §2, §3, §4, §5

[9] = tested on: REC1_34 (digital address CGGT 209) mRNA; assay: TOGA analysis, REC1_34; settings: aorta at day 14 of cholesterol, 3 mg/kg/week for 4 weeks
Procedure: as §1, §2, §3, §4, §5

**Q.** Which “expression of REC1_28 (TOGA), in words” value [1] does the source give for `COC(=O)C1=C(C)NC(C)=C(C(=O)OC(C)(C)CN(C)CCC(c2ccccc2)c2ccccc2)[C@@H]1c1cccc([N+](=O)[O-])c1.Cl` (single isomer, unassigned) [(R)-lercanidipine] here?
**A.** not down-regulated

**Q.** And the “level of gene expression of REC1_37 (TOGA)” value [2]?
**A.** 42

**Q.** And the “level of gene expression of REC1_7 (TOGA)” value [3]?
**A.** 683

**Q.** What about the “Relative Abundance Rec1_22, TOGA, D” value [4] of the same compound?
**A.** 0.1

**Q.** And the “level of gene expression of REC1_31 (TOGA)” value [5]?
**A.** 28

**Q.** And the “level of gene expression of REC1_1 (TOGA)” value [6]?
**A.** 872

**Q.** And the “level of gene expression of REC1_33 (TOGA)” value [7]?
**A.** 170

**Q.** What about the “Relative Abundance Rec1_24, TOGA, D” value [8] of the same compound?
**A.** 0.3

**Q.** And the “level of gene expression of REC1_34 (TOGA)” value [9]?
**A.** 58
